{"source": "patent US6495525B1", "about": "“VLA-4 inhibitor: oMePUPA-V” (Biogen, Inc., priority 1998, dated 2002)", "test_system": "sRBC-induced DTH model in mice", "experiment": "sRBC-induced delayed type hypersensitivity, footpad swelling", "format": "in vivo", "conditions": "20 mg/kg enterally", "procedure": "Specific pathogen-free female Balb/c mice, aged 8-10 weeks, from Jackson Labs were used for all experiments. The animals were fed food and water ad libitum. Sheep red blood cells (sRBC) in Alsever's solution from the same sheep were obtained weekly from Charles River Pharm. Services (Southbridge, Mass.). The sRBC were pelleted by centrifugation at 1000 g for 10 minutes at 4° C. and any visible buffy coat removed. The cells were then washed in saline. The cell pellet was resuspended in saline and counted using a hemocytometer. The cells were diluted in phosphate buffered saline (PBS) to 2×10^8 sRBC per mL. On Day 0, mice were sensitized by a s.c. injection of 2×10^7 sRBC in 100 μL PBS. On Day 5, sRBC were prepared as above, but diluted in PBS to a final concentration of 4×10^9 sRBC per ml. Of this preparation, 25 μL was injected s.c. into the right rear footpad.\nFor enteral administration of compound, oMePUPA-V (Lot #2770-029) was formulated in a vehicle of 60% PEG 400 in 0.02M TRIS to a stock concentration of 5 mg/mL. […]\nSwelling of unchallenged control (left) and challenged (right) rear footpads was measured using a tension caliper from Mitutoyo (Model #304-196, Dyer, Lancaster, Pa.) at 20 hours post-footpad challenge. The data are presented as the change in footpad thickness, determined by subtracting the left hind paw thickness from the right hind paw thickness. […]"}
{"compound": "Cc1ccccc1NC(=O)Nc1ccc(CC(=O)N2CCC[C@H]2C(=O)N[C@H](C)CC(=O)O)cc1", "note": "[oMePUPA-V]", "values": [{"measurement": "effect on footpad swelling (in words)", "result": "without effect"}]}
